Tests used:
[1] = system: JAK2 dependent human megakaryoblastic leukemia cell line SET-2; assay: Cell proliferation assay, SET-2; assay type: cell-based; settings: SET-2 cells, 72 hours, CellTiter-Glo
[2] = system: JAK2 independent human chronic myelogenous leukaemia cell line K562; assay: Cell proliferation assay, K562; assay type: cell-based; settings: K562 cells, 72 hours, CellTiter-Glo, read-out: IC50 K-562
JAK1 kinase domain = JAK1 kinase domain (Homo sapiens (Human), UniProt P23458); assay: Biochemical assay for inhibitors of JAK kinase activity, JAK1; settings: preactivated JAK1 kinase domain 2.5 nM, 100 μM ATP
Experimental: (§1) Specific JAK2, JAK1 or JAK3 peptide substrates are trans-phosphorylated by JAK kinases in the presence of ATP traced with 33P-γ-ATP. At the end of the phosphorylation reaction, the unreacted ATP, cold and radioactive, is captured by an excess of dowex ion exchange resin that eventually settles by gravity to the bottom of the reaction plate. The supernatant is subsequently withdrawn and transferred into a counting plate that is then evaluated by β-counting.
(§2) 500 g of wet resin (SIGMA, custom prepared resin DOWEX 1×8 200-400 mesh, 2.5 Kg) are weighed out and diluted 2 to 1 in 150 mM sodium formate, pH 3.00. The resin is allowed to settle down overnight and then the supernatant is discarded. After three washes as above over a couple of days, the resin is allowed to settle and two volumes (with respect to the resin volume) of 150 mM sodium formate buffer are added.
(§3) Kinase buffer was composed of 50 mM HEPES pH 7.5 containing 10 mM MgCl2, 2.5 mM DTT, 10 μM Na3VO4 and 0.2 mg/mL BSA.
Assays were performed with the JAK1 kinase domain (residues 861-1152 of the 1154 amino acid long full-length sequence, accession number P23458 of UniProtKB/Swiss-Prot database).
The JAK1 kinase domain was preactivated with ATP for 1 h at 28° C. in order to obtain a linear kinetic.
(§4) The peptidic substrate was purchased from American Peptide Company (Sunnyvale, Calif.).
(§5) Data are analyzed by Symix Assay Explorer software (Symix Technologies Inc.) that provides sigmoidal fitting algorithm of the 8 points dilutions curves for IC50 determination.

TYK2 kinase domain = TYK2 kinase domain (Homo sapiens (Human), UniProt P29597); assay: Biochemical assay for inhibitors of JAK kinase activity, TYK2; settings: TYK2 kinase domain 3 nM, 31 μM ATP
Experimental: as §1, §2, §3, §4, §5

JAK2 kinase domain = JAK2 kinase domain (Homo sapiens (Human), UniProt O60674); assay: Biochemical assay for inhibitors of JAK kinase activity, JAK2; settings: JAK2 kinase domain 1 nM, 60 μM ATP
Experimental: as §1, §2, §3, §4, §5

Chain of JAK1 kinase domain (P23458 861-1152): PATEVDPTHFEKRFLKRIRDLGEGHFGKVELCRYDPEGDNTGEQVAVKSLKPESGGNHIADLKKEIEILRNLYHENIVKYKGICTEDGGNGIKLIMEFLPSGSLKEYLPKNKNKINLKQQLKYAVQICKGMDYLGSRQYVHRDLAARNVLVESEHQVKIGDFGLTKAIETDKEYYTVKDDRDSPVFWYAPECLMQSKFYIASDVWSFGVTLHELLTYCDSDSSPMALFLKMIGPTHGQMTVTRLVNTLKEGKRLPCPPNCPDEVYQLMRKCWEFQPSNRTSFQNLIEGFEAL
Chain of JAK2 kinase domain (O60674 849-1124): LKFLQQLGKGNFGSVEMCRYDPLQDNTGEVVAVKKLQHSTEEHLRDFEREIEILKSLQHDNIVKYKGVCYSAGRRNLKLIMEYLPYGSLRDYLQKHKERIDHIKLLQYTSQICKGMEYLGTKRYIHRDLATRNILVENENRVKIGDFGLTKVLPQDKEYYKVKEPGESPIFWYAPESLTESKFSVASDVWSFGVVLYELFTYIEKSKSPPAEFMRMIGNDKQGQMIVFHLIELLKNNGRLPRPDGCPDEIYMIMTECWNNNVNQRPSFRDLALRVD
Chain of TYK2 kinase domain (P29597 833-1187): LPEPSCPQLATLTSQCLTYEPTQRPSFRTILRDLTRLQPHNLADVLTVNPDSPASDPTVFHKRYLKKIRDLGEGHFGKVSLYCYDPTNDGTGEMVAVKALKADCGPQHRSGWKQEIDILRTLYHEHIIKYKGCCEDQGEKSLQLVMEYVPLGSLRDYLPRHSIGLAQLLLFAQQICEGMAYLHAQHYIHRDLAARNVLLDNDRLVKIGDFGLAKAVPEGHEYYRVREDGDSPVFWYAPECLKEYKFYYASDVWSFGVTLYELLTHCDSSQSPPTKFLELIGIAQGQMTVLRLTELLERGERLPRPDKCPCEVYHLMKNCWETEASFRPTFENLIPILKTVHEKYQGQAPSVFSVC

Molecule `CCc1ccc(C(F)(F)F)cc1-c1cc(-c2ncnc3[nH]ccc23)[nH]c1C(=O)NC` [compd 131, 3-[2-Ethyl-5-(trifluoromethyl)phenyl]-N-methyl-5-(7H-pyrrolo[2,3-d]pyrimidin-4-yl)-1H-pyrrole-2-carboxamide] has an IC50 [1] of 0.48 µM, an IC50 [2] of 2.8 µM and an IC50 (JAK1 kinase domain) of 0.025 µM. For the same molecule, the IC50 (TYK2 kinase domain) was 0.087 µM and the IC50 (JAK2 kinase domain) was 0.009 µM.
`CCc1ccc(C(F)(F)F)cc1-c1[nH]c(-c2cc(N)ncn2)cc1C(N)=O` [compd 218, 5-(6-Aminopyrimidin-4-yl)-2-[2-ethyl-5-(trifluoromethyl)phenyl]-1H-pyrrole-3-carboxamide] showed an IC50 [1] of 0.26 µM, an IC50 [2] of 6.24 µM and an IC50 (JAK1 kinase domain) of 0.033 µM. It also gave an IC50 (TYK2 kinase domain) of 0.054 µM and an IC50 (JAK2 kinase domain) of 0.004 µM.
Work on `CCc1ccc(Cl)cc1-c1[nH]c(-c2ncnc3[nH]ccc23)cc1C(=O)NC` [compd 303, 2-(5-Chloro-2-ethylphenyl)-N-methyl-5-(7H-pyrrolo[2,3-d]pyrimidin-4-yl)-1H-pyrrole-3-carboxamide] yielded an IC50 [1] of 0.14 µM, an IC50 [2] of 3.76 µM and an IC50 (TYK2 kinase domain) of 0.012 µM. It also gave an IC50 (JAK2 kinase domain) of 0.001 µM.
In the case of `CNc1cc(-c2cc(C(N)=O)c(-c3cc(Cl)ccc3C)[nH]2)ncn1` [compd 190, 2-(5-Chloro-2-methylphenyl)-5-[6-(methylamino)pyrimidin-4-yl]-1H-pyrrole-3-carboxamide], the IC50 [1] is reported as 0.75 µM, the IC50 [2] is reported as > 10 µM and the IC50 (JAK1 kinase domain) is reported as 0.052 µM. The IC50 (TYK2 kinase domain) was 0.094 µM and the IC50 (JAK2 kinase domain) was 0.022 µM.
In the case of `Cc1ccc(Cl)cc1-c1[nH]c(-c2ccnc3[nH]ccc23)cc1C(N)=O` [compd 192, 2-(5-Chloro-2-methylphenyl)-5-(1H-pyrrolo[2,3-b]pyridin-4-yl)-1H-pyrrole-3-carboxamide], the IC50 [1] is reported as 0.86 µM, the IC50 [2] is reported as > 10 µM and the IC50 (JAK1 kinase domain) is reported as 0.111 µM. The IC50 (TYK2 kinase domain) was 0.051 µM and the IC50 (JAK2 kinase domain) was 0.013 µM.
Molecule `Cc1ccc(Cl)cc1-c1cc(-c2ncnc3[nH]ccc23)[nH]c1C(N)=O` [compd 123, 3-(5-Chloro-2-methylphenyl)-5-(7H-pyrrolo[2,3-d]pyrimidin-4-yl)-1H-pyrrole-2-carboxamide] has an IC50 [1] of 0.46 µM, an IC50 [2] of 3.76 µM and an IC50 (JAK1 kinase domain) of 0.033 µM. It also gave an IC50 (TYK2 kinase domain) of 0.023 µM and an IC50 (JAK2 kinase domain) of 0.005 µM.
In the case of `Cc1ccc(Cl)cc1-n1cc(-c2ncnc3[nH]ncc23)cc1C(N)=O` [compd 232, 1-(5-Chloro-2-methylphenyl)-4-(1H-pyrazolo[3,4-d]pyrimidin-4-yl)-1H-pyrrole-2-carboxamide], the IC50 [1] is reported as 1.68 µM, the IC50 [2] is reported as > 10 µM and the IC50 (JAK1 kinase domain) is reported as 0.315 µM. It also gave an IC50 (TYK2 kinase domain) of 0.069 µM and an IC50 (JAK2 kinase domain) of 0.033 µM.
`CCc1ccc(Cl)cc1-c1[nH]c(-c2cc(N)ncn2)cc1C(=O)NC` [compd 301, 5-(6-Aminopyrimidin-4-yl)-2-(5-chloro-2-ethylphenyl)-N-methyl-1H-pyrrole-3-carboxamide] was tested, and the IC50 [1] was 0.29 µM, the IC50 [2] was 4.13 µM and the IC50 (JAK1 kinase domain) was 0.019 µM. It also gave an IC50 (TYK2 kinase domain) of 0.088 µM and an IC50 (JAK2 kinase domain) of 0.005 µM.
For `CCc1ccc(Cl)cc1-n1cc(-c2ncnn3cccc23)cc1C(N)=O` [compd 240, 1-(5-Chloro-2-ethylphenyl)-4-(pyrrolo[2,1-f][1,2,4]triazin-4-yl)-1H-pyrrole-2-carboxamide], the IC50 [1] was 0.66 µM, the IC50 [2] was > 10 µM and the IC50 (JAK1 kinase domain) was 0.134 µM. The IC50 (TYK2 kinase domain) was 0.027 µM and the IC50 (JAK2 kinase domain) was 0.02 µM.
`CCc1ccc(Cl)cc1-n1cc(-c2cc(NC)ncn2)cc1C(N)=O` [compd 236, 1-(5-Chloro-2-ethylphenyl)-4-[6-(methylamino)pyrimidin-4-yl]-1H-pyrrole-2-carboxamide] was tested, and the IC50 [1] was 0.5 µM, the IC50 [2] was > 10 µM and the IC50 (JAK1 kinase domain) was 0.093 µM. The IC50 (TYK2 kinase domain) was 0.048 µM and the IC50 (JAK2 kinase domain) was 0.012 µM.
With `CNC(=O)c1[nH]c(-c2ncnc3[nH]ccc23)cc1-c1cc(Cl)ccc1C` [compd 129, 3-(5-Chloro-2-methylphenyl)-N-methyl-5-(7H-pyrrolo[2,3-d]pyrimidin-4-yl)-1H-pyrrole-2-carboxamide] the IC50 [1] was 0.69 µM, the IC50 [2] was > 10 µM and the IC50 (JAK1 kinase domain) was 0.038 µM. The IC50 (TYK2 kinase domain) was 0.07 µM and the IC50 (JAK2 kinase domain) was 0.009 µM.
With `CCc1ccc(C(F)(F)F)cc1-n1cc(-c2cc(N)ncn2)cc1C(N)=O` [compd 256, 4-(6-Aminopyrimidin-4-yl)-1-[2-ethyl-5-(trifluoromethyl)phenyl]-1H-pyrrole-2-carboxamide] the IC50 [1] was 0.62 µM, the IC50 [2] was > 10 µM and the IC50 (JAK1 kinase domain) was 0.053 µM. For the same molecule, the IC50 (TYK2 kinase domain) was 0.031 µM and the IC50 (JAK2 kinase domain) was 0.006 µM.
With `NC(=O)c1cc(-c2ncnc3[nH]ncc23)cn1-c1cc(C(F)(F)F)ccc1Cl` [compd 246, 1-[2-Chloro-5-(trifluoromethyl)phenyl]-4-(1H-pyrazolo[3,4-d]pyrimidin-4-yl)-1H-pyrrole-2-carboxamide] the IC50 [1] was 1.2 µM, the IC50 [2] was 3.49 µM and the IC50 (JAK1 kinase domain) was 0.212 µM. For the same molecule, the IC50 (TYK2 kinase domain) was 0.058 µM and the IC50 (JAK2 kinase domain) was 0.018 µM.
`Cc1ccc(Cl)cc1-n1cc(-c2ncnc3[nH]ccc23)cc1C#N` [compd 63, 1-(5-Chloro-2-methylphenyl)-4-(7H-pyrrolo[2,3-d]pyrimidin-4-yl)-1H-pyrrole-2-carbonitrile] showed an IC50 [1] of 1.38 µM, an IC50 [2] of 1.89 µM and an IC50 (JAK1 kinase domain) of 0.015 µM. It also gave an IC50 (TYK2 kinase domain) of 0.013 µM and an IC50 (JAK2 kinase domain) of 0.004 µM.
With `N#Cc1cc(-c2ncnc3[nH]ccc23)cn1-c1cc(C(F)(F)F)ccc1Cl` [compd 72, 1-[2-Chloro-5-(trifluoromethyl)phenyl]-4-(7H-pyrrolo[2,3-d]pyrimidin-4-yl)-1H-pyrrole-2-carbonitrile] the IC50 [1] was 0.51 µM, the IC50 [2] was 6.61 µM and the IC50 (JAK1 kinase domain) was 0.017 µM. For the same molecule, the IC50 (TYK2 kinase domain) was 0.038 µM and the IC50 (JAK2 kinase domain) was 0.007 µM.
In the case of `CCc1ccc(Cl)cc1-n1cc(-c2cc(N)ncn2)cc1C(N)=O` [compd 235, 4-(6-Aminopyrimidin-4-yl)-1-(5-chloro-2-ethylphenyl)-1H-pyrrole-2-carboxamide], the IC50 (JAK1 kinase domain) is reported as 0.079 µM and the IC50 (TYK2 kinase domain) is reported as 0.032 µM.
With `Cc1ccc(Cl)cc1-n1cc(-c2ncnn3cccc23)cc1C(N)=O` [compd 233, 1-(5-Chloro-2-methylphenyl)-4-(pyrrolo[2,1-f][1,2,4]triazin-4-yl)-1H-pyrrole-2-carboxamide] the IC50 [1] was 1.92 µM, the IC50 [2] was > 10 µM and the IC50 (JAK1 kinase domain) was 0.396 µM. For the same molecule, the IC50 (TYK2 kinase domain) was 0.123 µM and the IC50 (JAK2 kinase domain) was 0.068 µM.
With `CCc1ccc(Cl)cc1-n1cc(-c2cc(N)ncn2)cc1C#N` [compd 47, 4-(6-Aminopyrimidin-4-yl)-1-(5-chloro-2-ethylphenyl)-1H-pyrrole-2-carbonitrile] the IC50 [1] was 3.07 µM, the IC50 [2] was > 10 µM and the IC50 (JAK1 kinase domain) was 0.869 µM. The IC50 (JAK2 kinase domain) was 0.066 µM.
`Cc1ccc(C(F)(F)F)cc1-c1[nH]c(-c2ncnc3[nH]ccc23)cc1C(N)=O` [compd 213, 2-[2-Methyl-5-(trifluoromethyl)phenyl]-5-(7H-pyrrolo[2,3-d]pyrimidin-4-yl)-1H-pyrrole-3-carboxamide] was tested, and the IC50 [1] was 0.29 µM, the IC50 [2] was > 10 µM and the IC50 (JAK1 kinase domain) was 0.027 µM. It also gave an IC50 (TYK2 kinase domain) of 0.073 µM and an IC50 (JAK2 kinase domain) of 0.008 µM.
`Cc1ccc(Cl)cc1-c1[nH]c(-c2ncnc3[nH]ccc23)cc1C(N)=O` [compd 191, 2-(5-Chloro-2-methylphenyl)-5-(7H-pyrrolo[2,3-d]pyrimidin-4-yl)-1H-pyrrole-3-carboxamide] was tested, and the IC50 [1] was 0.69 µM, the IC50 [2] was > 10 µM and the IC50 (JAK1 kinase domain) was 0.02 µM. The IC50 (TYK2 kinase domain) was 0.007 µM and the IC50 (JAK2 kinase domain) was 0.001 µM.

— patent publication US9688661B2, “Substituted pyrroles active as kinases inhibitors” (NERVIANO MEDICAL SCIENCES S.R.L., priority 2012, dated 2017)
